In PubChem BioAssay AID1645867 (Buhrlage Lab, Dana-Farber Cancer Institute and Novartis …, 2021) one finds IC50 data, which are given here for 83 compounds.

Active and inactive are the calls of the source. How the calls were made is not given here.

For the experiment, the target named is Ubiquitin carboxyl-terminal hydrolase isozyme L1 (Homo sapiens) (UniProt P09936). The experiment is described as follows: UCH-L1 deubiquitylase inhibitors, biochemical concentration-response, hit retest (AID 1645867). The note with it: recombinant UCHL1 deubiquitinase activity assay.
Ubiquitin carboxyl-terminal hydrolase isozyme L1 (Homo sapiens), sequence (P09936 whole entry, looked up): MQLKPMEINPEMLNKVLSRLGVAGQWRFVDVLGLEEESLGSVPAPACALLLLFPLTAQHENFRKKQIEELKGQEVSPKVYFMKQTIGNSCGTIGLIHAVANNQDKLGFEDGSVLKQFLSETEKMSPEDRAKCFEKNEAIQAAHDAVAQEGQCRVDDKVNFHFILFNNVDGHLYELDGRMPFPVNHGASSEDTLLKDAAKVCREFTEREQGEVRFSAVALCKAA
Consider `Cc1nn(-c2ccccc2)c2c1N=C1C(Cl)=CC(Cl)=CN1C21C(=O)Nc2ccccc21` (stereo not drawn), for which the IC50 – broadly, the concentration at which inhibition is half-maximal – was 3.72 µM.

For `Cc1ccc(Cn2nc(C)c(C(=O)N3CCCc4cc(C)ccc43)c2C)cc1`, the IC50 was > 25 µM (inactive).

`COc1cccc(C(CC(=O)Nc2ccc3c(c2)OCCO3)n2cccc2)c1` (stereo not drawn): the IC50 was > 25 µM (inactive).

Regarding `N#Cc1cccc(C(=O)Nc2cccc(Oc3ccccc3)c2)c1`, the IC50 is > 25 µM (inactive).

For the compound `O=C1c2ccccc2C(=O)c2c(O)c(O)cc(O)c21`, the 50% inhibitory concentration (IC50) is 1.97 µM.

Consider `O=C1NC[C@@H](CCC(=O)N2CCCC2)N2C[C@@H](NCc3ccccc3)C[C@@H]12`, for which the IC50 is > 25 µM (inactive).

For `CS(=O)(=O)n1nc(NCc2ccc(F)cc2)nc1NCc1ccc(F)cc1`, the IC50 was > 25 µM (inactive).

In the case of `Cc1noc(C)c1CN1CCn2c1nc(-c1ccccc1)cc2=O`, the IC50 is > 25 µM (inactive).

`O=C1CC2(C(=O)N(Cc3ccc(Cl)cc3)c3ccccc32)c2cn[nH]c2N1` (stereo not drawn): the IC50 is > 25 µM (inactive).

As for `O=C(NCC(c1cccnc1)N1CCOCC1)C1CCCCC1` (stereo not drawn), the IC50 is > 25 µM (inactive).

As to `Cc1ccc(NC(=O)Cc2nnc3cc(-c4nc(C)no4)ccn23)cc1`, the IC50 was > 25 µM (inactive).

For `CCOc1ccc(NS(=O)(=O)c2ccc(NC(=O)Nc3ccccc3)cc2)cc1`, the IC50 was > 25 µM (inactive).

For `CCC(Sc1cccc(NC(=O)C2CCCCC2)c1)C(=O)Nc1cc([N+](=O)[O-])ccc1C` (stereo not drawn), the IC50 is > 25 µM (inactive).

On to `COc1c2nc3ccccc3oc-2cc(=O)c1OC`, for which the IC50 was > 25 µM (inactive).

Consider `Cc1ccc2[nH]c(=O)c(-c3nc4ccc(C)cn4c3NCc3ccc(F)cc3)cc2c1`, for which the IC50 is > 25 µM (inactive).

As to `Cc1nc(-c2ccccc2)n(Cc2ccc(F)cc2)c(=O)c1CCO`, the IC50 is > 25 µM (inactive).

Turning to `O=c1[nH]cccc1NS(=O)(=O)c1ccc(F)cc1`, the IC50 is > 25 µM (inactive).

On to `Cc1ccc(C2CN3C(=O)CN(C4CC4)C(=O)[C@]3(C)c3[nH]c4ccccc4c32)cc1` (stereo partly drawn), for which the IC50 is > 25 µM (inactive).

Regarding `COc1cccc(CNc2ccc(-c3nc(-c4ccccc4)no3)nn2)c1`, the IC50 is > 25 µM (inactive).

Turning to `Cc1cc(NC(=O)c2cc(-c3cccnc3)n[nH]2)ccc1Br`, the IC50 was > 25 µM (inactive).

Turning to `COc1ccc(-c2cnn(-c3ccc(NC(=O)Nc4cccc(C(F)(F)F)c4)cc3)c2)cc1`, the IC50 was > 25 µM (inactive).

Turning to `COc1ccc(Nc2nnc(Cc3ccc(Cl)cc3)c(=O)[nH]2)cc1`, the IC50 was > 25 µM (inactive).

Regarding `COC(=O)Nc1cccn(Cc2c(Cl)cccc2Cl)c1=O`, the IC50 was > 25 µM (inactive).

On to `O=C1CC(c2ccccc2O)Oc2ccccc21` (stereo not drawn), for which the IC50 was > 25 µM (inactive).

As to `CCC(C(=O)Nc1ncc2c(n1)CC(c1ccccc1)CC2=O)c1ccccc1` (stereo not drawn), the IC50 was > 25 µM (inactive).

Regarding `O=C(NCC(O)c1ccc([N+](=O)[O-])cc1)c1cccc(S(=O)(=O)N2CCOCC2)c1` (stereo not drawn), the IC50 is > 25 µM (inactive).

On to `Cc1ccc(NC(=O)C2C3C=CC4(O3)C2C(=O)N(C2CCCCC2)C4C(=O)NC2CCCCC2)cc1C` (stereo not drawn), for which the IC50 was > 25 µM (inactive).

As to `O=C1[C@H]2Cc3c([nH]c4ccccc34)CN2C(=O)CN1Cc1ccc(F)cc1`, the IC50 is > 25 µM (inactive).

On to `Fc1ccc(Nc2nc(CN3CCOCC3)nc3sc4c(c23)CCC4)cc1Cl`, for which the IC50 was > 25 µM (inactive).

On to `Cc1ccc(-n2nc3c(c2NC(=O)c2ccc(F)c(F)c2)CS(=O)(=O)C3)cc1`, for which the IC50 is > 25 µM (inactive).

Take `Cc1cc(C)n2nc(Cc3ccccc3)nc2n1`: the IC50 was > 25 µM (inactive).

Consider `O=c1c(S(=O)(=O)c2cc(F)cc(F)c2)c[nH]c2cc(Cl)ccc12`, for which the IC50 is > 25 µM (inactive).

As to `COc1ccc(CCN2COc3c(cc(Cl)c4cccnc34)C2)cc1OC`, the IC50 was > 25 µM (inactive).

In the case of `COc1cccc2cc(C(=O)Nc3nc(-c4ccncc4)cs3)oc12`, the IC50 is > 25 µM (inactive).

Regarding `COc1ccc(Cl)cc1NC(=O)c1cc(-c2ccccn2)n[nH]1`, the IC50 is > 25 µM (inactive).

In the case of `FC(F)(F)c1ccc(Nc2nnnc3ccccc23)cc1`, the IC50 is > 25 µM (inactive).

`CCOc1ccccc1C1CC(=O)Nc2ccc3ccccc3c21` (stereo not drawn): the IC50 was > 25 µM (inactive).

As for `O=C1C=C(O)c2c(O)cccc2C1=O`, the IC50 was > 25 µM (inactive).

Turning to `CC(C)=CCOC(C)(C)[C@H]1OC2CC[C@@]3(C)C(CCC4Cc5c([nH]c6ccccc56)[C@@]43C)C23OC3[C@@H]1O` (stereo partly drawn), the IC50 is > 25 µM (inactive).

With `N=C1/C(=C/c2cn(Cc3ccccc3F)c3ccccc23)C(=O)N=C2SC(C(F)(F)F)=NN12`, the IC50 was > 25 µM (inactive).

For the compound `Cc1ccc(C2CC(=O)c3cnc(NCC4CCCO4)nc3C2)cc1` (stereo not drawn), the IC50 is > 25 µM (inactive).

Consider `Cc1ccc(C(=O)N[C@@H](Cc2ccccc2)C(=O)N2CCC3(CC2)NCCc2[nH]cnc23)cc1C`, for which the IC50 was > 25 µM (inactive).

As for `Cc1nc(S(=O)(=O)NC[C@@]23CCC[C@H]2N(C)C(=O)CC3)cn1C`, the IC50 was > 25 µM (inactive).

For the compound `Cc1ccc(CNC(=O)Cn2c(=O)n(CCCC(=O)NCc3ccc(F)cc3)c(=O)c3ccccc32)cc1`, the IC50 was > 25 µM (inactive).

As to `Cc1ccc(NC(=O)Nc2ccc(C)n(CC(=O)Nc3ccc(C)cc3C)c2=O)cc1`, the IC50 was > 25 µM (inactive).

As to `Cc1nc(-c2ccc(C(=O)Nc3ccc(F)cc3)cc2)cs1`, the IC50 is > 25 µM (inactive).

Take `CC(Oc1ccc(F)cc1)c1nnc(C2(c3ccc(F)cc3)CCOCC2)o1` (stereo not drawn): the IC50 is > 25 µM (inactive).

Consider `COc1ccc(-c2cc3nc([C@H](C)NC(=O)COc4ccccc4F)nn3cn2)cc1`, for which the IC50 was > 25 µM (inactive).

Take `Cc1ccc(NC(=O)Nc2ccc(C)n(CC(=O)Nc3cccc(C)c3)c2=O)cc1`: the IC50 was > 25 µM (inactive).

Take `CC1OC2CC(=O)OC2C2=C1C(=O)c1c(O)cccc1C2=O` (stereo not drawn): the IC50 is > 25 µM (inactive).

Turning to `CC(C)CC1NC(=O)C2CCCN2C1=O` (stereo not drawn), the IC50 is 23.9 µM.

In the case of `C(=C\c1nc(-c2cccc(-c3ccn[nH]3)c2)no1)/c1ccco1`, the IC50 is > 25 µM (inactive).

With `CCOc1ccc2c(c1)c(=O)c(C(=O)c1ccccc1)cn2CC(=O)Nc1ccc(Cl)cc1`, the IC50 is > 25 µM (inactive).

With `O=C(CS(=O)(=O)c1ccc(F)cc1)Nc1ccc(-c2nc3ccccc3s2)c(O)c1`, the IC50 is > 25 µM (inactive).

For the compound `CC(C)(NC(=O)C1CCCCC1)c1nc2c(c(C(N)=O)n1)OCCO2`, the IC50 was > 25 µM (inactive).

As to `COc1cccc(-n2cnc3cc(C(=O)NCCc4ccccc4)ccc3c2=O)c1`, the IC50 is > 25 µM (inactive).

Regarding `O=C(c1ccc2cc[nH]c2c1)N1CCC(Nc2cccnc2)C1` (stereo not drawn), the IC50 is > 25 µM (inactive).

On to `Cc1ccccc1NC(=O)Cc1csc2nc(-c3ccc(F)cc3)cn12`, for which the IC50 was > 25 µM (inactive).

Regarding `CCc1ccc(NC(=O)Cn2c(=O)n(Cc3ccccc3)c(=O)c3nn(CC)cc32)cc1`, the IC50 is > 25 µM (inactive).

As to `COc1ccc(Cl)cc1NC(=O)CSc1ncnc2nc[nH]c12`, the IC50 is > 25 µM (inactive).

`COc1cc(O)c2c(O)c3c(cc2c1)CC(C)OC3=O` (stereo not drawn): the IC50 was > 25 µM (inactive).

Turning to `O=c1cc(Cc2ccccc2)nc2c(-c3ccccc3)c(COc3ccccc3)[nH]n12`, the IC50 is > 25 µM (inactive).

As for `O=C(C1CCCCC1)N1CCN(c2nc3c(F)cccc3s2)CC1`, the IC50 was > 25 µM (inactive).

For `O=c1[nH]oc(O)c1-c1ncc(C(F)(F)F)cc1Cl`, the IC50 was > 25 µM (inactive).

`c1ccc(-n2nnc(-c3noc(-c4ccc[nH]4)n3)c2-c2ccncc2)cc1`: the IC50 was > 25 µM (inactive).

In the case of `CCN1C(=O)c2ccccc2C(=O)[C@@]2(C)CN(C(=O)c3ccccc3)C[C@@H]12`, the IC50 is > 25 µM (inactive).

Turning to `CCC(C)N1CNc2c(c(=O)[nH]c(=O)n2Cc2ccco2)C1` (stereo not drawn), the IC50 was > 25 µM (inactive).

On to `CCc1ccc(S(=O)(=O)c2cn(CC(=O)Nc3ccccc3)c3ccccc3c2=O)cc1`, for which the IC50 was > 25 µM (inactive).

In the case of `CCc1cccc(CC)c1NC(=O)COC(=O)c1cc2cccc(OC)c2oc1=O`, the IC50 is > 25 µM (inactive).

As for `O=c1ccc(-c2cc3ccccc3o2)cn1Cc1ccccc1-c1ccccc1`, the IC50 was 12.7 µM.

As to `O=C(c1ccc(Cl)cc1)N(c1ccccn1)C1CCCCC1`, the IC50 was > 25 µM (inactive).

In the case of `CSc1ccc([C@H]2[C@@H](C(=O)O)c3ccccc3C(=O)N2Cc2ccc(F)cc2)cc1`, the IC50 was > 25 µM (inactive).

As for `Cc1ccc(NCc2cc3c(-c4cccc(F)c4)nn(-c4ccccc4)c3[nH]c2=O)cc1C`, the IC50 is 21.6 µM.

Turning to `COCCNC(=O)c1cc(-c2ccn(C3CCCC3)n2)n2ccccc12`, the IC50 was > 25 µM (inactive).

Regarding `CCn1cc2c(n1)c(=O)n(Cc1ccccc1)c(=O)n2CC(=O)Nc1ccc(C)cc1C`, the IC50 is > 25 µM (inactive).

Take `O=C(Nc1ccc(NC(=O)c2ccccc2O)cc1)Nc1ccc(OCc2ccccc2)cc1`: the IC50 is > 25 µM (inactive).

Regarding `O=C(Nc1ccc2c(c1)OCO2)c1cncc(NS(=O)(=O)c2ccccc2)c1`, the IC50 was > 25 µM (inactive).

As for `O=C(Nc1ccc(-c2cn3ccsc3n2)cc1)c1ccc(Cl)c([N+](=O)[O-])c1`, the IC50 was > 25 µM (inactive).

Consider `COc1ccc(NC(=O)C2C3C=CC4(O3)C2C(=O)N(CCc2ccccc2)C4C(=O)NC2CCCCC2)cc1` (stereo not drawn), for which the IC50 is > 25 µM (inactive).

For the compound `O=C(O)c1c(CNC2CCCCCC2)c2ccccc2n1Cc1ccc(F)cc1`, the IC50 is > 25 µM (inactive).

Consider `O=C(CCSc1nnnn1-c1ccccc1)Nc1cc(C(F)(F)F)ccc1Cl`, for which the IC50 is > 25 µM (inactive).

As to `Cn1nc(Cl)c(Cl)c1Oc1ccc(S(=O)(=O)Nc2ccc(Oc3ccc(C(F)(F)F)cn3)c(Cl)c2)cc1`, the IC50 is > 25 µM (inactive).

On to `CCOc1ccc2c(c1)c(=O)c(C(=O)c1ccc(C)cc1)cn2CC(=O)Nc1ccc(C)cc1`, for which the IC50 is > 25 µM (inactive).
